According to patent publication US11814364B2, “Pyridine N-oxide derivatives useful as factor XIa inhibitors” (Janssen Pharmaceutica NV, priority 2021, dated 2023):

Target: human plasma kallikrein (Homo sapiens, UniProt P03952)
Test: Kallikrein inhibition FLINT assay with quenched AMC peptide substrate Z-Gly-Pro-Arg-AMC (end point EP or kinetic KIN reads)
Assay type: biochemical
Conditions: kinetic reads at 5 min intervals over 30 min; read-out: Kallikrein (KIN) IC50
How it was run: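 Enzyme and compound were preincubated 30 min before adding 50 μM AMC substrate in pH 7.5 Tris/NaCl/CaCl2/BSA/CHAPS buffer. AMC release was read at 30 min endpoint or every 5 min.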

human plasma kallikrein, sequence (P03952 391-638 limits assumed): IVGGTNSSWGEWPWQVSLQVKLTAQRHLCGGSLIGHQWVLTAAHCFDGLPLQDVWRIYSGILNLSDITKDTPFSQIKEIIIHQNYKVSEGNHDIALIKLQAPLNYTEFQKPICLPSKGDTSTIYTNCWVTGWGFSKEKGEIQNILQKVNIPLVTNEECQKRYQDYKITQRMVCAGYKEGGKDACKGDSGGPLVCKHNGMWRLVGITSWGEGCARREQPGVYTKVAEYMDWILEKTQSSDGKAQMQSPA
human plasma kallikrein, sequence (P03952 20-390 partner limits assumed): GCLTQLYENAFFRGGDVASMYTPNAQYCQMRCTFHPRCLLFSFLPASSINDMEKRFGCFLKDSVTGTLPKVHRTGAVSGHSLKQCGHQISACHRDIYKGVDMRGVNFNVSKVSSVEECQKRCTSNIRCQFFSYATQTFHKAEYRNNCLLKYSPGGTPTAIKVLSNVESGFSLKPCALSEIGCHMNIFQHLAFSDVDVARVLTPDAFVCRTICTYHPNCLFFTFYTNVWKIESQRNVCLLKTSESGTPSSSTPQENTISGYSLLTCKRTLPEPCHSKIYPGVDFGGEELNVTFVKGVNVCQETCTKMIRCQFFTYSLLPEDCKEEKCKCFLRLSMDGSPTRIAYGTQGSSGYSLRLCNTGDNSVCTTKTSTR

Row | SMILES | IC50 [nM]
1 | [O-][n+]1cc(-c2cc(Cl)ccc2-n2cnnn2)ccc1C(Cc1ccc(Cl)cc1)n1cc(-c2ccncc2F)cn1 (stereo not shown) [Example P174] | 50.8
2 | Cn1nnc(-c2cnn([C@H](CCOC(F)F)c3ccc(-c4c(-n5cc(Cl)nn5)ccc(Cl)c4F)c[n+]3[O-])c2)c1F [Example P705] | 210
3 | O=C(O)c1ccc(-c2cnn(C(Cc3ccn(C(F)F)n3)c3ccc(-c4c(C(F)F)ccc(Cl)c4F)c[n+]3[O-])c2)cc1 (single isomer, unassigned) [Example Q71] | 4.9
4 | Cn1nnc(F)c1-c1cnn(C(CC2CC2)c2ccc(-c3c(-n4cnnn4)ccc(Cl)c3F)c[n+]2[O-])c1 (stereo not shown) [Example P743] | > 100
5 | Cn1nccc1-c1cnn(C(Cn2cc(F)cn2)c2ccc(-c3c(C(F)F)ccc(Cl)c3F)c[n+]2[O-])c1 (stereo not shown) [Example Q30] | 88.1
6 | NC(=O)c1ccc(-c2cnn(C(Cc3nccs3)c3ccc(-c4c(-n5cc(C(F)(F)F)nn5)ccc(Cl)c4F)c[n+]3[O-])c2)cc1F (single isomer, unassigned) [Example P943] | 6.2
7 | [2H]C([2H])(C[C@H](c1ccc(-c2c(-n3cc(C(F)(F)F)nn3)ccc(Cl)c2F)c[n+]1[O-])n1cc(-c2ncnn2C)cn1)OC(F)F [Example P834] | 68
8 | NC(=O)c1ccc(-c2cnn(C(CN3CCCC3=O)c3ccc(-c4c(-n5cc(C(F)(F)F)nn5)ccc(Cl)c4F)c[n+]3[O-])c2)cc1F (single isomer, unassigned) [Example P937] | 2.7
9 | O=C(O)c1ccc(-c2cnn(C(Cc3nccs3)c3ccc(-c4c(-n5cc(C(F)(F)F)nn5)ccc(Cl)c4F)c[n+]3[O-])c2)cc1F (stereo not shown) [Example P941] | 12.2
10 | [O-][n+]1cc(-c2c(-n3cc(Cl)nn3)ccc(Cl)c2F)ccc1[C@@H](CCOC(F)F)n1cc(-c2cnn(C(F)F)n2)cn1 [Example P666] | 212
11 | [O-][n+]1cc(-c2c(-n3cnnn3)ccc(Cl)c2F)ccc1C(Cn1ccc(-c2ccccc2)n1)n1cc(-c2ccncc2)cn1 (stereo not shown) [Example P270] | 268
12 | Cn1ncnc1-c1cnn(C(CCOC(F)F)c2ccc(-c3c(-n4cc(C(F)(F)F)nn4)ccc(Cl)c3F)c[n+]2[O-])c1 (stereo not shown) [Example P757] | 31.9
13 | COc1ccc(C2CC2CC(c2ccc(-c3cc(Cl)ccc3-n3cnnn3)c[n+]2[O-])n2cc(-c3ccc(C(=O)O)cc3)cn2)cc1 (stereo not shown) [Example P239] | 180
14 | Cn1ncnc1-c1cnn(C(Cc2nnco2)c2ccc(-c3c(-n4cc(C(F)(F)F)nn4)ccc(Cl)c3F)c[n+]2[O-])c1 (stereo not shown) [Example P935] | 487
15 | Cc1cc(C(N)=O)sc1-c1cnn(C(CC2CC2)c2ccc(-c3c(-n4cnnn4)ccc(Cl)c3F)c[n+]2[O-])c1 (stereo not shown) [Example P960] | 52.9
16 | [O-][n+]1cc(-c2c(-n3cnnn3)ccc(Cl)c2F)ccc1[C@@H](CC1CCC1)n1cc(-c2cn(C(F)F)nn2)cn1 [Example P657] | 468
17 | CCOC(=O)C1CC1CC(c1ccc(-c2cc(Cl)ccc2-n2cnnn2)c[n+]1[O-])n1cc(-c2ccc(C(=O)O)cc2)cn1 (stereo not shown) [Example P67] | 362
18 | COc1cc(C(CC2CC2)n2cc(-c3ncnn3C)cn2)[n+]([O-])cc1-c1cc(Cl)ccc1C#N (single isomer, unassigned) [Example Q61] | 281
19 | [O-][n+]1cc(-c2cc(Cl)ccc2-n2cnnn2)ccc1C(Cc1ccc(Cl)cc1)n1cc(-c2ccnc(F)c2)cn1 (stereo not shown) [Example P210] | 22.8
20 | [O-][n+]1cc(-c2c(-n3cnnn3)ccc(Cl)c2F)ccc1C(CCOC(F)F)n1cc(-c2c(Cl)cnn2C(F)F)cn1 (stereo not shown) [Example P574] | 7.9
21 | COc1cc(C(CC2CC2)n2cc(-c3ccc(C(N)=O)c(F)c3)cn2)[n+]([O-])cc1-c1cc(Cl)ccc1C#N (stereo not shown) [Example Q59] | 25.2
22 | COC(=O)Nc1ccc(-c2cnn(C(CC3CCCCO3)c3ccc(-c4c(-n5cnnn5)ccc(Cl)c4F)c[n+]3[O-])c2)cc1 (single isomer, unassigned) [Example P127] | 70.1
23 | NC(=O)c1ccnn1CC(c1ccc(-c2c(C(F)F)ccc(Cl)c2F)c[n+]1[O-])n1cc(-c2ccnc(C(F)(F)F)c2)cn1 (single isomer, unassigned) [Example Q28] | 94.6
24 | Cn1ncc(F)c1-c1cnn(C(CC2CC2)c2ccc(-c3c(-n4cnnn4)ccc(Cl)c3F)c[n+]2[O-])c1 (stereo not shown) [Example P478] | 236
25 | [O-][n+]1cc(-c2cc(Cl)ccc2-n2cnnn2)ccc1C(Cc1ccc(Cl)cc1)n1cc(-c2ccc(F)nc2)cn1 (stereo not shown) [Example P173] | 78.4

Further lines, results first:

Row | IC50 [nM] | SMILES
26 | 69.8 | N#Cc1cc(-c2cnn(C(CN3CCOC3=O)c3ccc(-c4c(-n5cnnn5)ccc(Cl)c4F)c[n+]3[O-])c2)ccn1 (single isomer, unassigned) [Example P439]
27 | 1.7 | NC(=O)c1ccn(CC(c2ccc(-c3c(-n4cnnn4)ccc(Cl)c3F)c[n+]2[O-])n2cc(-c3ccncc3)cn2)n1 (stereo not shown) [Example P443]
28 | 38.8 | CN(CC(c1ccc(-c2c(-n3cnnn3)ccc(Cl)c2F)c[n+]1[O-])n1cc(-c2ccnc(F)c2)cn1)C(=O)OC(C)(C)C (single isomer, unassigned) [Example P354]
29 | 21.6 | CCC(c1ccc(-c2c(-n3cnnn3)ccc(Cl)c2F)c[n+]1[O-])n1cc(-c2ccc(C(N)=O)c(F)c2)cn1 (single isomer, unassigned) [Example P949]
30 | 5.3 | [O-][n+]1cc(-c2c(-n3cnnn3)ccc(Cl)c2F)ccc1C(Cn1cccn1)n1cc(-c2ccnc(C(F)(F)F)c2)cn1 (single isomer, unassigned) [Example P513]
31 | 22.4 | O=C1CCCN1CC(c1ccc(-c2c(-n3cnnn3)ccc(Cl)c2F)c[n+]1[O-])n1cc(-c2cc[n+]([O-])cc2)cn1 (single isomer, unassigned) [Example P244]
32 | 19 | N#Cc1cc(-c2cnn(C(CCOC(F)F)c3ccc(-c4c(-n5cnnn5)ccc(Cl)c4F)c[n+]3[O-])c2)ccn1 (stereo not shown) [Example P458]
33 | 83.4 | CN(CC(c1ccc(-c2c(-n3cnnn3)ccc(Cl)c2F)c[n+]1[O-])n1cc(-c2ccncc2)cn1)C(=O)CC(=O)N1CCCCC1 (stereo not shown) [Example P322]
34 | 788 | NC(=O)c1scc(-c2cnn(C(CC3CC3)c3ccc(-c4c(-n5cnnn5)ccc(Cl)c4F)c[n+]3[O-])c2)c1F (single isomer, unassigned) [Example P954]
35 | 3.3 | COC(=O)Nc1ccc(-c2cnn(C(Cc3ccn(C)n3)c3ccc(-c4c(-n5cnnn5)ccc(Cl)c4F)c[n+]3[O-])c2)cc1 (single isomer, unassigned) [Example P330]
36 | 53.6 | CN(CC(c1ccc(-c2c(-n3cnnn3)ccc(Cl)c2F)c[n+]1[O-])n1cc(-c2ccnc(F)c2)cn1)C(=O)C(C)(C)C (stereo not shown) [Example P426]
37 | 228 | Nc1ncc(-c2cnn(C(CC3CC3)c3ccc(-c4c(-n5cnnn5)ccc(Cl)c4F)c[n+]3[O-])c2)cc1F (single isomer, unassigned) [Example P194]
38 | 8.4 | Cn1cc(C[C@H](c2ccc(-c3c(-n4cnnn4)ccc(Cl)c3F)c[n+]2[O-])n2cc(-c3ccnc(C(F)(F)F)c3)cn2)nn1 [Example P736]
39 | 40.7 | Cc1cc(-c2cnn(C(Cn3cc(F)cn3)c3ccc(-c4c(-n5cnnn5)ccc(Cl)c4F)c[n+]3[O-])c2)cc[n+]1[O-] (stereo not shown) [Example P472]
40 | 184 | Cn1ncc(-c2cnn(C(CCOC(F)F)c3ccc(-c4c(-n5cnnn5)ccc(Cl)c4F)c[n+]3[O-])c2)cc1=O (stereo not shown) [Example P415]
